The target of one assay is T1, EGFR tyrosine kinase (Homo sapiens, UniProt P00533).
T1 construct: Recombinant intracellular fragments of EGFR, erbB2 and erbB4; made in house; host or cells: baculovirus/Sf21 insect cells (cleared lysate used)
In words: Test (a) protein tyrosine kinase phosphorylation assay, EGFR. The format is biochemical. As to conditions: ATP at Km concentration; read-out: IC50 Test (a): Inhibition of EGFR tyrosine kinase protein phosphorylation. As for the experimental part:
(§1) This test measures the ability of a test compound to inhibit the phosphorylation of a tyrosine containing polypeptide substrate by EGFR, erbB2 and erbB4 tyrosine kinase enzyme.
(§2) Recombinant intracellular fragments of EGFR, erbB2 and erbB4 (accession numbers X00588, X03363 and L07868 respectively) were cloned and expressed in the baculovirus/Sf21 system. […]
(§3) Constitutive kinase activity of these recombinant proteins was determined by their ability to phosphorylate a synthetic peptide (made up of a random co-polymer of Glutamic Acid, Alanine and Tyrosine in the ratio of 6:3:1). […]
(§4) The immobilised phospho-peptide product of the reaction was detected by immunological methods. […] After further washing, HRP activity in each well of the plate was measured colorimetrically using 22′-Azino-di-[3-ethylbenzthiazoline sulfonate (6)] diammonium salt crystals (ABTS™ from Roche) as a substrate.
(§5) Quantification of colour development and thus enzyme activity was achieved by the measurement of absorbance at 405 nm on a Molecular Devices ThermoMax microplate reader. Kinase inhibition for a given compound was expressed as an IC50 value. […] The range of phosphorylation was calculated from the positive (vehicle plus ATP) and negative (vehicle minus ATP) control values.

For assay [1], the target named is T2, erbB2 in a MCF7 derived cell line (Clone 24 cells) (Homo sapiens, UniProt P04626).
T2 construct: to give a cell line that overexpresses full length wild type erbB2 protein; expressed in transfected cells; host or cells: MCF7 (breast carcinoma) derived Clone 24 cells
T2 sequence (P04626 23-1255): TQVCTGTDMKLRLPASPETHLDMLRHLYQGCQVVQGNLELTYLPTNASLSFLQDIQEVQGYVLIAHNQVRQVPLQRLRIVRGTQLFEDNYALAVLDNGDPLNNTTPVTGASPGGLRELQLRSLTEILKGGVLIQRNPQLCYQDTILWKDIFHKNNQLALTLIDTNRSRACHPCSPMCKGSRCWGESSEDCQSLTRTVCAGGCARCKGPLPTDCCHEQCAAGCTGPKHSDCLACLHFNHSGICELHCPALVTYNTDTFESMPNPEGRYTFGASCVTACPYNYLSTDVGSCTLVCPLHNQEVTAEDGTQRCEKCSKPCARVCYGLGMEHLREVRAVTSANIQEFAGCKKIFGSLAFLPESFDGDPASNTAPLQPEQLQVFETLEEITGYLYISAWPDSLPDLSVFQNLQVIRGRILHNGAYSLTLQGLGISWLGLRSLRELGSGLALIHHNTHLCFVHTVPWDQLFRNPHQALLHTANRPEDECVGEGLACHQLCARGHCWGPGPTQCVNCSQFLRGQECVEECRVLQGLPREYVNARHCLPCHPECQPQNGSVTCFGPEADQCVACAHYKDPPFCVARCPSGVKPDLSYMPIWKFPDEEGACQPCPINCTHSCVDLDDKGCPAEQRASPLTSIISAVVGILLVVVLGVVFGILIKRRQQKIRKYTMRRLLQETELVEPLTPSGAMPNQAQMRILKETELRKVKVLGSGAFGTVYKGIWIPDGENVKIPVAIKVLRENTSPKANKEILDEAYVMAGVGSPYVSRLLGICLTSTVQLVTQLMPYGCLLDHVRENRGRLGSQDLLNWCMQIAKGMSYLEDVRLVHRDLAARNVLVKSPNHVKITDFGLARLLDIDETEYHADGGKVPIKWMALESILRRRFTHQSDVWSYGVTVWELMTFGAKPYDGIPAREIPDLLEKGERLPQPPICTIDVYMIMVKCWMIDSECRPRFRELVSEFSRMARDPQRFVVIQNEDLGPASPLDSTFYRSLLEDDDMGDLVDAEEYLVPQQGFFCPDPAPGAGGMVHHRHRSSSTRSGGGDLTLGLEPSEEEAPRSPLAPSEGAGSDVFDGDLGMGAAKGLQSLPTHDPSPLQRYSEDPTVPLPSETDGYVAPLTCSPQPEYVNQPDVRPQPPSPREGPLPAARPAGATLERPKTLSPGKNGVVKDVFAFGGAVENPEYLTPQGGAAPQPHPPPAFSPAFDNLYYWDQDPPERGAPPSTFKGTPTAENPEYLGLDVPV
Nature of the assay: Test (c) Clone 24 phospho-erbB2 cell assay. The settings on record: MCF7 derived Clone 24 cells, 4 hours with compound; read-out: IC50 Test (c): Inhibition of erbB2 tyrosine kinase protein phosphorylation. The format is cell-based. As for the experimental part: This immunofluorescence end point assay measures the ability of a test compound to inhibit the phosphorylation of erbB2 in a MCF7 (breast carcinoma) derived cell line which was generated by transfecting MCF7 cells with the full length erbB2 gene using standard methods to give a cell line that overexpresses full length wild type erbB2 protein (hereinafter ‘Clone 24’ cells).
Clone 24 cells were cultured in Growth Medium (phenol red free Dulbecco's modified Eagle's medium (DMEM) containing 10% foetal bovine serum, 2 mM glutamine and 1.2 mg/ml G418) in a 7.5% CO2 air incubator at 37° C. […] Cell density was measured using a haemocytometer and viability was calculated using Trypan Blue solution before being further diluted in Growth Medium and seeded at a density of 1×10^4 cells per well (in 100 μl) into clear bottomed 96 well plates (Packard, No. 6005182). […]
Immunostaining was performed at room temperature. […] Plates were analysed within six hours of completing the immunostaining.
The Fluorescence signal is each well was measured using an Acumen Explorer Instrument (Acumen Bioscience Ltd.), a plate reader that can be used to rapidly quantitate features of images generated by laser-scanning. […]

Another assay concerns the target T3, erbB2 tyrosine kinase (Homo sapiens, UniProt P04626).
T3 construct: Recombinant intracellular fragments of EGFR, erbB2 and erbB4; made in house; host or cells: baculovirus/Sf21 insect cells (cleared lysate used)
Nature of the assay: Test (a) protein tyrosine kinase phosphorylation assay, erbB2. The format is biochemical. As to conditions: ATP at Km concentration; read-out: IC50 Test (a): Inhibition of erbB2 tyrosine kinase protein phosphorylation. As for the experimental part: as §1, §2, §3, §4, §5

T3 sequence (P04626 676-1255 limits assumed): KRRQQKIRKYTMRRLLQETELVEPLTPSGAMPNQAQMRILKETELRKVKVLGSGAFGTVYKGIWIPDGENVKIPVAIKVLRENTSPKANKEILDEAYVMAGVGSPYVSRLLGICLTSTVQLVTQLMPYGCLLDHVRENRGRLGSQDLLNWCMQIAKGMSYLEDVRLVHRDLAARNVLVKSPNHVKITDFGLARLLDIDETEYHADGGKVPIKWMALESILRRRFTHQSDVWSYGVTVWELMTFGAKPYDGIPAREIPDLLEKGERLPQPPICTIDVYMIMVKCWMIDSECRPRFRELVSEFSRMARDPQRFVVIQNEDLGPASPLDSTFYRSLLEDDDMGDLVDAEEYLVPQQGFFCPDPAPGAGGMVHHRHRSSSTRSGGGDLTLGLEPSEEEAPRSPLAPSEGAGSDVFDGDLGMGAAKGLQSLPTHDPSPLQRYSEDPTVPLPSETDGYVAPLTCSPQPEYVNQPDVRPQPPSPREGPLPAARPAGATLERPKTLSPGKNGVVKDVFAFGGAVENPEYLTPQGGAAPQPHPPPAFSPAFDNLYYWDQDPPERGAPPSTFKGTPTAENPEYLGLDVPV
T1 sequence (P00533 669-1210 limits assumed): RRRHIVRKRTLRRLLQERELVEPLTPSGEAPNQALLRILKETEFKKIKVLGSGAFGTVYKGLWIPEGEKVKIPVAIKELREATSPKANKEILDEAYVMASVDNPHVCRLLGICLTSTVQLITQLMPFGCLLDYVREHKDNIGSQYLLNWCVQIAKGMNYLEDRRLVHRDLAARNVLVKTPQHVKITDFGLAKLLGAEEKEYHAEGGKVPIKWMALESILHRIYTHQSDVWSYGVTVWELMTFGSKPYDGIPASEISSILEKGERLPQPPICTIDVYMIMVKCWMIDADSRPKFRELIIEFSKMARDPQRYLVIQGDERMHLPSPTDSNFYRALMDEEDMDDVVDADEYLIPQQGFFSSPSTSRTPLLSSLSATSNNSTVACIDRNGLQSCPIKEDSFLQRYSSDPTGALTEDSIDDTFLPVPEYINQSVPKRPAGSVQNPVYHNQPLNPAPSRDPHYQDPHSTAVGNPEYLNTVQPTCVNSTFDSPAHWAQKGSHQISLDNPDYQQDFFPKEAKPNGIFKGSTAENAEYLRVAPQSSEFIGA

For orientation: IC50 means the concentration that gives 50% inhibition. Turning to `CN(CCOc1cccc2ncnc(Nc3ccc4c(cnn4Cc4ccccn4)c3)c12)C(=O)CO` [Example 1, 2-Hydroxy-N-methyl-N-{2-[(4-{[1-(pyridin-2-ylmethyl)-1H-indazol-5-yl]amino}quinazolin-5-yl)oxy]ethyl}acetamide], the IC50 turned out to be 180 nM at EGFR tyrosine kinase, 420 nM in assay [1] and 8 nM at erbB2 tyrosine kinase.

On to `CN(CCOc1cccc2ncnc(Nc3ccc4c(cnn4Cc4cscn4)c3)c12)C(=O)CO` [Example 2, 2-Hydroxy-N-methyl-N-{2-[(4-{[1-(1,3-thiazol-4-ylmethyl)-1H-indazol-5-yl]amino}quinazolin-5-yl)oxy]ethyl}acetamide], for which the IC50 amounted to 160 nM at EGFR tyrosine kinase, 590 nM in assay [1] and 6 nM on erbB2 tyrosine kinase.

The record behind these values is patent US20090221616A1, “QUINAZOLINE DERIVATIVES AS EGF AND/OR ERBB2 TYROSINE KINASE INHIBITORS” (priority 2005, published 2009).
